Results on 1 compound are retold here after paper PMC12655682, “Screening-Identified Oxazole-4-Carboxamide KB-2777 Exhibits In Vitro Anti-Coronavirus Activity” (Pharmaceutics, 2025).

A word on the pEC50: it is the EC50 on a negative log10 scale, so that one unit is a factor of ten.

Series [1] relates to PEDV. Description: Extracellular viral RNA by RT-qPCR of supernatants, PEDV/Vero E6. The conditions noted are these: Porcine epidemic diarrhea virus, Vero C1008; PEDV/Vero E6, 72 h post-infection, n = 3. Format: cell-based. As to the method: (§1) At 72 h post-infection, 100–200 μL of culture supernatant was collected. Viral RNA was extracted using the QIAamp Viral RNA Mini Kit (Qiagen, Hilden, Germany)according to the manufacturer’s instructions and quantified by one-step RT-qPCR on a real-time thermocycler.
(§2) EC50 values were determined from concentration–response curves generated by 2-fold serial dilutions, with at least four concentration points per curve. Each measurement was performed in triplicate technical replicates. Unless otherwise indicated, data are presented as mean ± SEM from three independent biological experiments (n = 3).
(§3) For absolute quantification, synthetic DNA (oligonucleotide) standards corresponding to the NL63, OC43, and PEDV amplicons were used. Ten-fold serial dilutions were prepared to generate standard curves. Ct values were interpolated against the curves to obtain gene copies per reaction and converted to genome copies per mL by accounting for extraction and elution volumes and the qPCR input volume.

For series [2], the system named is HCoV-NL63. Description: Infectious titer (TCID50) of HCoV-NL63 at 48 h. In kind it is cell-based, Human coronavirus NL63. As to the method: (§4) HCoV-OC43 (KBPV-VR-8), HCoV-NL63 (KBPV-VR-88), and PEDV DR13 (originally described in [20]) were used. HCoV-NL63 was propagated in LLC-MK2 cells, and HCoV-OC43 and PEDV DR13 were propagated in Vero E6 cells. Virus-containing supernatants were clarified (2000× g, 10 min, 4 °C), aliquoted, and stored at −80 °C. Infectious titers (TCID50/mL) were determined on the corresponding host cell lines by the Spearman–Kärber method with back-titrations included in each experiment.
We sought to confirm whether the antiviral activity observed by RT-qPCR was also present at the level of infectious progeny virus. […] Bars represent mean ± SEM; n = 3 independent experiments (triplicate wells per concentration).

In series [3] the test system is mock-infected cells (LLC-MK2, Vero E6). Description: EZ-Cytox WST cell viability in mock-infected cells under the same dosing as RT-qPCR. In kind it is cell-based. The conditions noted are these: tested concentration range (≤25 µM). As to the method:
Cells were seeded at 2 × 10^4 cells per well in 96-well plates and, after overnight attachment, exposed to test compounds for 72 h in maintenance medium. The final DMSO concentration was ≤0.1% (v/v) for all conditions, including vehicle controls. Cell viability was quantified using EZ-Cytox WST reagent (DoGenBio, Seoul, Republic of Korea) according to the manufacturer’s instructions; absorbance was read at 450 nm on a SpectraMax i3x microplate reader (Molecular Devices, San Jose, CA, USA). Viability for each well was normalized to the mean of vehicle-treated (mock) controls on the same plate and expressed as percent viability. Each condition included technical replicates (n = 3) per experiment. Concentration–response data from ≥3 independent experiments were fit to a four-parameter logistic (4PL) model in GraphPad Prism 10.1.2 (GraphPad Software, San Diego, CA, USA) (log10-transformed concentrations; bottom and top unconstrained).
We advanced KB-2777, the series member with the highest selectivity index (SI), to evaluate antiviral activity against α-coronaviruses (HCoV-NL63, PEDV) and a β-coronavirus (HCoV-OC43) by RT-qPCR. […] Representative cytopathic effect (CPE) micrographs (KB-2777 20 µM vs. virus-only) for HCoV-NL63, HCoV-OC43, and PEDV are provided in the Supplementary Information (Figure S16).

Series [4] deals with HCoV-OC43. Description: Extracellular viral RNA by RT-qPCR of supernatants, HCoV-OC43/Vero E6. Format: cell-based, Human coronavirus OC43. The conditions noted are these: Betacoronavirus 1, Vero C1008; HCoV-OC43/Vero E6, 72 h post-infection, n = 3. As to the method:
as §1, §2, §3

Series [5] can be described thus: Visible crystals or precipitates in the cell assay (soluble range). In kind it is physicochemical. The conditions noted are these: cell assay medium; without loss of viability or morphological change. As to the method:
We screened 11 oxazole-4-carboxamide derivatives (Figure 1) against HCoV-NL63 in LLC-MK2 cells and quantified antiviral activity and cytotoxicity (Figure 2). Several derivatives inhibited NL63 with distinct selectivity profiles. […] Visible crystals or precipitates formed at ≥50 µM without loss of viability or morphological change; therefore, downstream assays were performed at ≤25 µM.

In series [6] the test system is HCoV-NL63. The series is described as follows: Extracellular viral RNA by RT-qPCR of supernatants, HCoV-NL63/LLC-MK2. Format: cell-based, Human coronavirus NL63. As to the method:
[…] Viral RNA was extracted using the QIAamp Viral RNA Mini Kit (Qiagen, Hilden, Germany)according to the manufacturer’s instructions and quantified by one-step RT-qPCR on a real-time thermocycler.
as §2, §3

Series [7] deals with HCoV-OC43. The series is described as follows: Time-of-addition, TCID50 on Vero E6, HCoV-OC43. Format: cell-based, Human coronavirus OC43. The conditions noted are these: HCoV-OC43, titrated on Vero E6, 48 h. As for the experimental part:
as §4
For HCoV-OC43, TOA was assessed by CPE reduction in MRC-5 cells and by TCID50 on Vero E6 (no IFA collected).
Figure S14. Time-of-addition (TOA) analysis of KB-2777 against HCoV-NL63 (48 h). (a) CPE-reduction assay. KB-2777 was applied at 20 µM (blue) or 5 µM (red) under the indicated TOA conditions (Full, Pre, Co, Post, DMSO).
Cell protection (%) was calculated relative to the DMSO control. […] (b) Infectious progeny released under the same TOA conditions, quantified as log10(TCID₅₀/mL) from culture supernatants (see Methods). […]
Figure S15. […] Cell protection (%) was calculated relative to the DMSO control. […]
Statistics: one-way ANOVA with Dunnett’s multiple comparisons vs DMSO; *P<0.05, **P<0.01, ***P<0.001, ****P<0.0001. (b) Infectious progeny released under the same TOA conditions, quantified as log₁₀(TCID₅₀/mL) from culture supernatants by endpoint dilution on Vero E6 indicator cells (Spearman–Kärber method; see Methods). […]

pEC50: −log10 of the molar value. Entries after “also recorded” stand apart in the source; their conditions may differ. Read-outs that look alike come from different tables or passages of the source. Bounds are passed on as bounds.

As to `COc1cccc(-c2oc(-c3ccc(C(F)(F)F)cc3)nc2C(=O)NCC2CC2)c1` [KB-2777, N-(cyclopropylmethyl)-5-(3-methoxyphenyl)-2-(4-(trifluoromethyl)phenyl)Oxazole-4-Carboxamide], the negative-log EC50 (pEC50) in series [1] is 5.80; in series [4], 5.74; in series [6] (Human coronavirus NL63, LLC-MK2, HCoV-NL63, post-treatment regimen, 48 h post-infection, read-out: EC50 (viral RNA, RT-qPCR) at 48 h) it was 5.62; in series [6] (Human coronavirus NL63, LLC-MK2, HCoV-NL63, post-treatment regimen, 72 h post-infection, read-out: EC50 (viral RNA, RT-qPCR) at 72 h), 5.28; in series [6] (Human coronavirus NL63, HCoV-NL63/LLC-MK2, 72 h post-infection, n = 3, read-out: EC50 (viral RNA, RT-qPCR)), 5.28. The “infectious titer (TCID50) vs virus control” value in series [2] (HCoV-NL63, 48 h, post-treatment, 12.5 µM and 25 µM, p < 0.0001, n = 3) is “decreased; also recorded: significant reductions”. Besides, the “infectious titers (log10[TCID50/mL]) across TOA regimens” value in series [2] (HCoV-NL63, 48 h post-infection, full/pre/co/post) was “decreased in a regimen-dependent manner, largest with full exposure, smaller with pre- and post-treatment, and minimal with co-treatment”. Moreover, in series [3], the “cytotoxicity in mock-infected cells” value is reported as “without cytotoxicity; also recorded: no overt cytotoxicity”. The “concentration at which visible crystals or precipitates formed” value in series [5] was at least 50 µM. Further, the “inhibition of viral RNA at 24 h” value in series [6] (HCoV-NL63, post-treatment regimen, 24 h post-infection, 0–25 µM) was “minimal”. In series [7], the “TCID50 across TOA regimens” value is “greatest antiviral effect with full exposure, intermediate activity with pre- and post-treatment, and little or no effect with co-treatment”.
